Peptide text beside a SMILES is read from it.
What was measured:
[1] = tested on: Botrytis cinerea (B05.10); experiment: Resazurin antifungal assay of 180 alpha-factor peptide variants towards Botrytis (Example 2); assay type: cell-based; settings: % inhibition of fungal growth, Botrytis conidia, resazurin; for Inhibition at 50 μM: peptide 50 μM; for Inhibition at 100 μM: peptide 100 μM
In short: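 B. cinerea B05.10 conidia (5000/well) were exposed to peptides at 100, 50, 20, 15 and 10 μM final for 24 h at 20° C. Resazurin was then added and fluorescence read at 570/620 nm. Percent growth inhibition was calculated against conidia-only wells, with four technical replicates.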

[2] = tested on: Botrytis cinerea (B05.10); experiment: Resazurin antifungal assay of 23 alpha-factor peptides (dimers, hybrids) towards Botrytis (Example 15, Table 6); assay type: cell-based; parameters: key to active against Botrytis at 2.5 μM: Peptides that showed greater than 90% inhibition were considered active against Botrytis; settings: for Inhibition at 2.5 μM / active against Botrytis at 2.5 μM: peptide 2.5 μM; for Inhibition at 2.5 μM / Inhibition at 5 μM / Inhibition at 10 μM / Inhibition at 20 μM / Inhibition at 50 μM: resazurin assay, % inhibition of fungal growth, Botrytis cinerea B05.10; for Inhibition at 5 μM: peptide 5 μM; for Inhibition at 10 μM: peptide 10 μM; for Inhibition at 20 μM: peptide 20 μM; for Inhibition at 50 μM: peptide 50 μM
Method: The antifungal activity of […] alpha-factor peptide variants towards Botrytis was tested. Experimental design:
Peptides corresponding to SEQ ID NO: 261-264 and 401-420 were chemically synthesized using the solid-phase synthesis method and resuspended in water to a stock solution of 1 mM. The stock solution was aliquoted in cryovials and stored at −80° C.
The Botrytis cinerea culture (B05.10) isolate was acquired from the Centraalbureau voor Schimmelcultures, the Netherlands. The Botrytis fungus was propagated on 0.5% V8 agar plates (200 ml V8 Juice, 3 g CaCO3, 15 g agar, 800-ml millipore water) at 20° C., in a 12 h photoperiod for 21 days.
Fungal conidia were harvested by scraping a Botrytis plate flooded with 1 ml water with 0.1% Tween 80 solution. Conidia were then collected in a 50 ml falcon tube by passing the solution through a 40 micron filter. The solution was then centrifuged at 6000 rpm and the pellet was resuspended in 1 ml of 20% glycerol. The conidia concentration of the resulting solution was counted using a hemocytometer. The stock was diluted to […] using 20% glycerol and frozen in 100 μl aliquots in −80° C. until further use.
Peptides were tested for activity against Botrytis, using the resazurin assay. For this, fungal stock conidia was first diluted to 5000 conidia/well. 50 μl of the spore suspension was added to each well of the sterile 96-well clear bottom testing plate and mixed with 50 μl of peptide solutions to a final concentration of 100, 50, 20, 10, 5 and 2.5 μM. The plate was incubated for 24 h at 20° C. After 24 h, 10 μl of resazurin dye was added to the microtiter plate and incubated again for […]. Fluorescence was measured at 570/620 nm after 4 h of incubation with resazurin.
Growth inhibition was calculated by subtracting the fluorescence values of conidia only wells from sample wells and depicted as % inhibition of fungal growth. Four technical replicates were used for all treatments.

## CC[C@H](C)[C@H](NC(=O)[C@H](Cc1c[nH]c2ccccc12)NC(=O)[C@H](CCCCN)NC(=O)[C@@H](N)CCCCN)C(=O)N[C@@H](CCC(N)=O)C(=O)N[C@@H](CC(C)C)C(=O)N[C@@H](CCCCN)C(=O)N1CCC[C@H]1C(=O)NCC(=O)N[C@@H](CCC(=O)O)C(=O)N1CCC[C@H]1C(=O)N[C@@H](CCSC)C(=O)N[C@@H](Cc1ccc(O)cc1)C(=O)O [compound 175] (H-KKWIQLKPGEPMY-OH; N-terminus and C-terminus assumed)
[1]
  Inhibition at 50 μM: <90%
  Inhibition at 100 μM: <90%

## CSCC[C@H](NC(=O)[C@@H]1CCCN1C(=O)[C@H](CO)NC(=O)CNC(=O)[C@H](CCCNC(=N)N)NC(=O)[C@H](CCCCN)NC(=O)[C@H](CC(C)C)NC(=O)[C@H](CC(N)=O)NC(=O)[C@@H](NC(=O)[C@H](CC(=O)O)NC(=O)[C@H](Cc1c[nH]cn1)NC(=O)[C@@H](N)Cc1c[nH]c2ccccc12)C(C)C)C(=O)N[C@@H](Cc1ccc(O)cc1)C(=O)O [compound 176] (H-WHDVNLKRGSPMY-OH; N-terminus and C-terminus assumed)
[1]
  Inhibition at 50 μM: <90%
  Inhibition at 100 μM: <90%

## CSCC[C@H](NC(=O)[C@@H]1CCCN1C(=O)[C@H](CCC(N)=O)NC(=O)CNC(=O)[C@@H]1CCCN1C(=O)[C@H](CCCCN)NC(=O)[C@H](Cc1ccccc1)NC(=O)[C@H](CCC(=O)O)NC(=O)[C@H](CC(C)C)NC(=O)[C@@H](NC(=O)[C@H](Cc1c[nH]cn1)NC(=O)[C@@H](N)CCCCN)[C@@H](C)O)C(=O)N[C@@H](Cc1ccc(O)cc1)C(=O)O [compound 177] (H-KHTLEFKPGQPMY-OH; N-terminus and C-terminus assumed)
[1]
  Inhibition at 50 μM: <90%
  Inhibition at 100 μM: <90%

## CSCC[C@H](NC(=O)[C@@H]1CCCN1C(=O)[C@H](CCC(N)=O)NC(=O)CNC(=O)[C@@H]1CCCN1C(=O)[C@H](Cc1c[nH]c2ccccc12)NC(=O)[C@H](Cc1ccccc1)NC(=O)[C@H](CCC(N)=O)NC(=O)[C@@H](NC(=O)[C@H](CO)NC(=O)[C@H](Cc1c[nH]cn1)NC(=O)[C@@H](N)Cc1c[nH]c2ccccc12)C(C)C)C(=O)N[C@@H](Cc1ccc(O)cc1)C(=O)O [compound 178] (H-WHSVQFWPGQPMY-OH; N-terminus and C-terminus assumed)
[1]
  Inhibition at 50 μM: <90%
  Inhibition at 100 μM: 97.30%

## CSCC[C@H](NC(=O)[C@@H]1CCCN1C(=O)[C@H](CCC(N)=O)NC(=O)CNC(=O)[C@@H]1CCCN1C(=O)[C@H](CCCCN)NC(=O)[C@H](CC(C)C)NC(=O)[C@H](CCC(=O)O)NC(=O)[C@H](CC(C)C)NC(=O)[C@H](Cc1ccccc1)NC(=O)[C@H](Cc1c[nH]cn1)NC(=O)[C@@H](N)CCCCN)C(=O)N[C@@H](Cc1ccc(O)cc1)C(=O)O [compound 179] (H-KHFLELKPGQPMY-OH; N-terminus and C-terminus assumed)
[1]
  Inhibition at 50 μM: <90%
  Inhibition at 100 μM: <90%

## CC[C@H](C)[C@H](NC(=O)[C@H](CCCCN)NC(=O)[C@H](CC(C)C)NC(=O)[C@H](C)NC(=O)[C@H](CC(C)C)NC(=O)[C@H](CC(=O)O)NC(=O)[C@H](Cc1c[nH]cn1)NC(=O)[C@@H](N)CCCCN)C(=O)NCC(=O)N[C@@H](CCC(N)=O)C(=O)N1CCC[C@H]1C(=O)N[C@@H](CCSC)C(=O)N[C@@H](Cc1ccc(O)cc1)C(=O)O [compound 180] (H-KHDLALKIGQPMY-OH; N-terminus and C-terminus assumed)
[1]
  Inhibition at 50 μM: <90%
  Inhibition at 100 μM: <90%

## CSCC[C@H](NC(=O)[C@@H]1CCCN1C(=O)[C@H](CCC(N)=O)NC(=O)CNC(=O)[C@H](C)NC(=O)[C@H](CCCNC(=N)N)NC(=O)[C@H](CC(C)C)NC(=O)[C@H](CCCNC(=N)N)NC(=O)CNC(=O)[C@H](Cc1c[nH]c2ccccc12)NC(=O)[C@H](Cc1c[nH]cn1)NC(=O)[C@H](CCCCN)NC(=O)CNC(=O)CNC(=O)CNC(=O)CNC(=O)[C@H](Cc1ccc(O)cc1)NC(=O)[C@H](CCSC)NC(=O)[C@@H]1CCCN1C(=O)[C@H](CCC(N)=O)NC(=O)CNC(=O)[C@H](C)NC(=O)[C@H](CCCNC(=N)N)NC(=O)[C@H](CC(C)C)NC(=O)[C@H](CCCNC(=N)N)NC(=O)CNC(=O)[C@H](Cc1c[nH]c2ccccc12)NC(=O)[C@H](Cc1c[nH]cn1)NC(=O)[C@@H](N)CCCCN)C(=O)N[C@@H](Cc1ccc(O)cc1)C(=O)O [compound 261] (H-KHWGRLRAGQPMYGGGGKHWGRLRAGQPMY-OH; N-terminus and C-terminus assumed)
[2]
  Inhibition at 2.5 μM: <90%
  Inhibition at 5 μM: 99.3%
  Inhibition at 10 μM: 100%
  Inhibition at 20 μM: 100%
  Inhibition at 50 μM: 100%

## CSCC[C@H](NC(=O)[C@@H]1CCCN1C(=O)[C@H](CCC(N)=O)NC(=O)CNC(=O)[C@H](C)NC(=O)[C@H](CCCNC(=N)N)NC(=O)[C@H](CC(C)C)NC(=O)[C@H](CCCNC(=N)N)NC(=O)CNC(=O)[C@H](Cc1c[nH]c2ccccc12)NC(=O)[C@H](Cc1c[nH]cn1)NC(=O)[C@@H](N)CCCCN)C(=O)N[C@@H](Cc1ccc(O)cc1)C(=O)NCC(=O)NCC(=O)NCC(=O)NCC(=O)N[C@@H](CCCNC(=N)N)C(=O)N[C@@H](CCCNC(=N)N)C(=O)N[C@@H](CCCNC(=N)N)C(=O)N[C@@H](CCCNC(=N)N)C(=O)N[C@@H](CCCNC(=N)N)C(=O)N[C@@H](CCCNC(=N)N)C(=O)N[C@@H](CCCNC(=N)N)C(=O)N[C@@H](CCCNC(=N)N)C(=O)O [compound 262] (H-KHWGRLRAGQPMYGGGGRRRRRRRR-OH; N-terminus and C-terminus assumed)
[2]
  active against Botrytis at 2.5 μM: active
  Inhibition at 2.5 μM: 99.8%
  Inhibition at 5 μM: 100%
  Inhibition at 10 μM: 100%
  Inhibition at 20 μM: 100%
  Inhibition at 50 μM: 100%

## CSCC[C@H](NC(=O)[C@@H]1CCCN1C(=O)[C@H](CCC(N)=O)NC(=O)CNC(=O)[C@H](C)NC(=O)[C@H](CCCNC(=N)N)NC(=O)[C@H](CC(C)C)NC(=O)[C@H](CCCNC(=N)N)NC(=O)CNC(=O)[C@H](Cc1c[nH]c2ccccc12)NC(=O)[C@H](Cc1c[nH]cn1)NC(=O)[C@@H](N)CCCCN)C(=O)N[C@@H](Cc1ccc(O)cc1)C(=O)NCC(=O)NCC(=O)NCC(=O)NCC(=O)N[C@@H](CCCCN)C(=O)N[C@@H](CCCCN)C(=O)N[C@@H](CCCCN)C(=O)N[C@@H](CCCCN)C(=O)N[C@@H](CCCCN)C(=O)N[C@@H](CCCCN)C(=O)N[C@@H](CCCCN)C(=O)N[C@@H](CCCCN)C(=O)O [compound 263] (H-KHWGRLRAGQPMYGGGGKKKKKKKK-OH; N-terminus and C-terminus assumed)
[2]
  active against Botrytis at 2.5 μM: active
  Inhibition at 2.5 μM: 99.7%
  Inhibition at 5 μM: 100%
  Inhibition at 10 μM: 100%
  Inhibition at 20 μM: 100%
  Inhibition at 50 μM: 100%

## CSCC[C@H](NC(=O)[C@@H]1CCCN1C(=O)[C@H](CCC(N)=O)NC(=O)CNC(=O)[C@H](C)NC(=O)[C@H](CCCNC(=N)N)NC(=O)[C@H](CC(C)C)NC(=O)[C@H](CCCNC(=N)N)NC(=O)CNC(=O)[C@H](Cc1c[nH]c2ccccc12)NC(=O)[C@H](Cc1c[nH]cn1)NC(=O)[C@@H](N)CCCCN)C(=O)N[C@@H](Cc1ccc(O)cc1)C(=O)NCC(=O)NCC(=O)NCC(=O)NCC(=O)N[C@@H](Cc1ccc(O)cc1)C(=O)N[C@@H](CCSC)C(=O)N1CCC[C@H]1C(=O)N[C@@H](CCC(N)=O)C(=O)NCC(=O)N[C@@H](C)C(=O)N[C@@H](CCCNC(=N)N)C(=O)N[C@@H](CC(C)C)C(=O)N[C@@H](CCCNC(=N)N)C(=O)NCC(=O)N[C@@H](Cc1c[nH]c2ccccc12)C(=O)N[C@@H](Cc1c[nH]cn1)C(=O)N[C@@H](CCCCN)C(=O)O [compound 264] (H-KHWGRLRAGQPMYGGGGYMPQGARLRGWHK-OH; N-terminus and C-terminus assumed)
[2]
  Inhibition at 2.5 μM: <90%
  Inhibition at 5 μM: 96.2%
  Inhibition at 10 μM: 100%
  Inhibition at 20 μM: 100%
  Inhibition at 50 μM: 100%

## CC[C@H](C)[C@H](NC(=O)[C@H](Cc1c[nH]cn1)NC(=O)[C@@H](N)CCCCN)C(=O)N[C@@H](CC(C)C)C(=O)N[C@@H](CCCCN)C(=O)N[C@@H](Cc1ccccc1)C(=O)N[C@@H](CCCCN)C(=O)N1CCC[C@H]1C(=O)NCC(=O)N[C@@H](CCC(N)=O)C(=O)N1CCC[C@H]1C(=O)N[C@@H](CCSC)C(=O)N[C@@H](Cc1ccc(O)cc1)C(=O)O [compound 402] (H-KHILKFKPGQPMY-OH; N-terminus and C-terminus assumed)
[2]
  Inhibition at 2.5 μM: <90%
  Inhibition at 5 μM: <90%
  Inhibition at 10 μM: 96.2%
  Inhibition at 20 μM: 100%
  Inhibition at 50 μM: 100%

Reference: patent US20250382332A1, “NOVEL ALPHA-FACTOR BASED PEPTIDES WITH ANTIFUNGAL ACTIVITY” (INVAIO SCIENCES, INC., priority 2024, published 2025)
